System: male and female Sprague–Dawley rats
Test: 90-day subchronic oral gavage toxicity study
Assay type: in vivo, rat
Parameters: key to NOEL, absolute liver weight increase / LOEL, absolute liver weight increase / NOEL, relative kidney weight increase / LOEL, relative kidney weight increase / NOEL, absolute kidney weight increase / LOEL, absolute kidney weight increase / NOEL, relative liver weight increase / LOEL, relative liver weight increase: NR: no response, no statistically significant dose-dependent changes
Protocol: Subchronic (90-day) studies were performed in accordance with current U.S. EPA’s Toxic Substances Control Act Good Laboratory Practice (GLP) Standards, with the following two general exceptions to the GLP guidelines: Analysis of the dose formulations was conducted according to RTI-approved Standard Operating Procedures, and corn oil (the vehicle) was not characterized (certificate of analysis from the vendor is available in the appendices to the final reports). Male and female Sprague–Dawley rats (five dose levels plus a control, n = 10/sex/dose group, corn oil vehicle dose volume of 3 mL/kg; oral gavage) were used in these studies, and the rats were euthanized on SD 91. The dose levels for PFHI were 0, 12.5, 25, 50, 100, and 200 mg/kg-day. The dose levels for MHFPK were 0, 18.8, 37.5, 75, 150, and 300 mg/kg-day. The dose levels for PFNAC were 0, 0.1, 0.3, 1.0, 3.0, and 10 mg/kg-day for male rats and 0, 0.3, 1.0, 3.0, 10, and 30 mg/kg-day for female rats. For CTFPA, the dose levels were 0, 1.9, 3.8. 7.5, 15, and 30 mg/kg-day for male rats and 0, 6.3, 12.5, 25, 50, and 100 mg/kg-day for female rats. For each PFAS, three batches of dosing solution were prepared. The time between the batch preparation of the dosing solutions ranged between 29 and 39 days. Blood samples were collected from all the rats at termination for serum chemistry, hematology, coagulation, and the analysis of the parent PFAS chemical in the plasma. In vivo data collection and further detail on the endpoints examined postmortem are described below.
The rats were observed twice daily for morbidity and mortality throughout the study period. At least once prior to randomization to test groups and weekly thereafter, the rats were physically examined, and bodyweights were obtained. Feed consumption was quantified weekly starting on SD 1.
Neurotoxicity was evaluated using the functional observational battery (FOB) and measuring locomotor activity (LMA) 2–4 h post dosing on SDs 78–80 and 80–84, respectively. For both the 14- and 90-day studies, an ophthalmologic examination was conducted prior to randomization and near the end of the study, using indirect ophthalmoscopy and slit–lamp biomicroscopy (as needed) after the administration of a mydriatic solution.
Hematology, biochemistry, and coagulation endpoints were measured at the termination of the study. A Siemens Advia 2120i hematology analyzer (Siemens Healthineers, Erlangen, Germany) was used to measure (or calculate) the parameters related to the complete blood count, leukocyte differential count, and reticulocyte count. The hematology parameters are listed and described in Table 2. The prothrombin time […] and activated partial thromboplastin time (APTT) were measured using an Instrumentation Laboratory (Bedford, MA, USA) ACL Elite Pro coagulation analyzer (laser–nephelometric centrifugal method).
At necropsy, the rats were visually examined for external abnormalities and organ weights (absolute and relative to the BW and brain weight), which were recorded (paired organs weighed together). The tissues were preserved in 10% neutral buffered formalin (NBF), except for the ocular tissues, testes, and epididymides, which were preserved in modified Davidson’s fixative and later transferred to 10% NBF. Bone marrow smears were prepared from the femurs, and the slides were air-dried, fixed in methanol, stained, and stored at room temperature for possible future evaluation. The preserved tissues were embedded in paraffin, sectioned, stained with hematoxylin and eosin, and examined by a board-certified veterinary pathologist.
Statistical analysis was performed using Provantis™ Version 10 or greater (Instem LSS, Limited; Stone, Staffordshire, UK). Differences among the treatment groups compared to the control were evaluated using one-way analysis of variance (ANOVA) if the underlying assumptions of a normal distribution (Shapiro–Wilk test) and the homogeneity of the variance (Levene’s test) were satisfied. […]

FC(F)(F)C(F)(F)C(F)(F)C(F)(F)CCI [PFHI, 1H,1H,2H,2H-Perfluorohexyl iodide]
Bodyweight (BW) and bodyweight gain (90-day, both sexes, all doses): None in females; dose-dependent reduced BW changes in males in all the dose groups, but BW gain on SDs 1-90 was not significantly affected | Clinical observations (90-day, both sexes, all doses): None | Coagulation endpoints (90-day, both sexes, all doses): Dose-dependent minimal prolongations in PT (in males at ≥12.5 mg/kg-day and in females at ≥25 mg/kg-day | Feed consumption (90-day, both sexes, all doses): No changes in males; increased feed consumption in females at 25, 50, and 100 mg/kg-day but not at 200 mg/kg-day | Functional observational battery (90-day, both sexes, all doses): No changes | Gross lesions (90-day, both sexes, all doses): None considered as PFHI related | Hematology (90-day, both sexes, all doses): Minimal decreases in reticulocytes in males at ≥50 mg/kg-day; minimal increases in MPV in females and sporadically in males at 200 mg/kg-day and in both sexes at 50 and 100 mg/kg-day | Histopathology (90-day, both sexes, all doses): The kidney and liver ^5 of males at ≥100 mg/kg-day and the liver of females at 200 mg/kg-day | Locomotor activity (90-day, both sexes, all doses): No effects | Morbidity and mortality (90-day, both sexes, all doses): None | Ophthalmology (90-day, both sexes, all doses): No ocular lesions | Organ weight changes (90-day, both sexes, all doses): Mean absolute and/or relative dose-dependent organ weight increases in the liver of females at ≥100 mg/kg-day and males at ≥25 mg/kg-day and kidney weight increases only in males at ≥100 mg/kg-day ^5 | BMD10, absolute liver weight increase (female): 57.8 mg/kg-day | BMDL, absolute liver weight increase (female): 8.1 mg/kg-day | LOEL, absolute kidney weight increase (female): NR | LOEL, absolute liver weight increase (female): 200 mg/kg-day | LOEL, relative kidney weight increase (female): NR | LOEL, relative liver weight increase (female): 100 mg/kg-day | NOEL, absolute kidney weight increase (female): NR | NOEL, absolute liver weight increase (female): 100 mg/kg-day | NOEL, relative kidney weight increase (female): NR | NOEL, relative liver weight increase (female): 50 mg/kg-day | % BW Gain (female, 12.5 mg/kg-day): 61.51% | % Diff, % BW Gain (female, 12.5 mg/kg-day): 1.61% | % Diff, Total BW change (female, 12.5 mg/kg-day): 1.06% | % Diff, Total Food Consumed (female, 12.5 mg/kg-day): 0.12% | A/G (female, 12.5 mg/kg-day): 1.09±0.05 ratio | ALB (female, 12.5 mg/kg-day): 4.28 ± 0.37 g/dL | ALPi (female, 12.5 mg/kg-day): 42.8±13.0 U/L | APTT (female, 12.5 mg/kg-day): 18.80 s | BUN (female, 12.5 mg/kg-day): 16.8 ± 2.7 mg/dL | CHOL (female, 12.5 mg/kg-day): 110.5 ± 32.7 mg/dL | GLOB (female, 12.5 mg/kg-day): 3.94 ± 0.25 g/dL | GLUC (female, 12.5 mg/kg-day): 138.0 ± 29.9 mg/dL | HCT (female, 12.5 mg/kg-day): 46.90±1.85% | HGB (female, 12.5 mg/kg-day): 14.91 ± 0.54 g/dL | Kidney Weight (female, 12.5 mg/kg-day): 1.83 g | Kidney/Body Weight (female, 12.5 mg/kg-day): 0.58% | Kidney/Brain Weight (female, 12.5 mg/kg-day): 89.5% | Liver Weight (female, 12.5 mg/kg-day): 8.53 g | Liver/Body Weight (female, 12.5 mg/kg-day): 2.68% | Liver/Brain Weight (female, 12.5 mg/kg-day): 416% | MPV (female, 12.5 mg/kg-day): 7.10 ± 0.30 fL | PT (female, 12.5 mg/kg-day): 13.34 s | Total BW change (female, 12.5 mg/kg-day): 124.60 g | Total Food Consumed (female, 12.5 mg/kg-day): 1474 g | % BW Gain (female, 25 mg/kg-day): 60.67% | % Diff, % BW Gain (female, 25 mg/kg-day): 0.22% | % Diff, Total BW change (female, 25 mg/kg-day): 1.70% | % Diff, Total Food Consumed (female, 25 mg/kg-day): 7.27% | A/G (female, 25 mg/kg-day): 1.07±0.11 ratio | ALB (female, 25 mg/kg-day): 4.02 ± 0.39 g/dL | ALPi (female, 25 mg/kg-day): 54.9±21.9 U/L | APTT (female, 25 mg/kg-day): 18.59 s | BUN (female, 25 mg/kg-day): 16.2 ± 2.1 mg/dL | CHOL (female, 25 mg/kg-day): 114.9 ± 14.1 mg/dL | GLOB (female, 25 mg/kg-day): 3.78 ± 0.16 g/dL | GLUC (female, 25 mg/kg-day): 153.4 ± 30.6 mg/dL | HCT (female, 25 mg/kg-day): 48.01±1.96% | HGB (female, 25 mg/kg-day): 15.38 ± 0.54 g/dL | Kidney Weight (female, 25 mg/kg-day): 1.83 g | Kidney/Body Weight (female, 25 mg/kg-day): 0.57% | Kidney/Brain Weight (female, 25 mg/kg-day): 88.2% | Liver Weight (female, 25 mg/kg-day): 8.66 g | Liver/Body Weight (female, 25 mg/kg-day): 2.71% | Liver/Brain Weight (female, 25 mg/kg-day): 417% | MPV (female, 25 mg/kg-day): 7.32 ± 0.30 fL | PT (female, 25 mg/kg-day): 13.51 s | Total BW change (female, 25 mg/kg-day): 125.38 g | Total Food Consumed (female, 25 mg/kg-day): 1579 g | % BW Gain (female, 50 mg/kg-day): 65.42% | % Diff, % BW Gain (female, 50 mg/kg-day): 8.07% | % Diff, Total BW change (female, 50 mg/kg-day): 7.25% | % Diff, Total Food Consumed (female, 50 mg/kg-day): 8.31% | A/G (female, 50 mg/kg-day): 1.09±0.09 ratio | ALB (female, 50 mg/kg-day): 4.27 ± 0.46 g/dL | ALPi (female, 50 mg/kg-day): 43.7±5.5 U/L | APTT (female, 50 mg/kg-day): 20.46 s | BUN (female, 50 mg/kg-day): 15.7 ± 2.2 mg/dL | CHOL (female, 50 mg/kg-day): 119.7 ± 25.4 mg/dL | GLOB (female, 50 mg/kg-day): 3.91 ± 0.26 g/dL | GLUC (female, 50 mg/kg-day): 157.1 ± 16.7 mg/dL | HCT (female, 50 mg/kg-day): 47.80±2.45% | HGB (female, 50 mg/kg-day): 15.23 ± 0.72 g/dL | Kidney Weight (female, 50 mg/kg-day): 1.85 g | Kidney/Body Weight (female, 50 mg/kg-day): 0.57% | Kidney/Brain Weight (female, 50 mg/kg-day): 93.9% | Liver Weight (female, 50 mg/kg-day): 8.92 g | Liver/Body Weight (female, 50 mg/kg-day): 2.76% | Liver/Brain Weight (female, 50 mg/kg-day): 454% | MPV (female, 50 mg/kg-day): 7.47 ± 0.44 fL | PT (female, 50 mg/kg-day): 13.48 s | Total BW change (female, 50 mg/kg-day): 132.23 g | Total Food Consumed (female, 50 mg/kg-day): 1595 g | % BW Gain (female, 100 mg/kg-day): 62.41% | % Diff, % BW Gain (female, 100 mg/kg-day): 3.09% | % Diff, Total BW change (female, 100 mg/kg-day): 5.03% | % Diff, Total Food Consumed (female, 100 mg/kg-day): 13.5% | A/G (female, 100 mg/kg-day): 1.08±0.06 ratio | ALB (female, 100 mg/kg-day): 4.32 ± 0.36 g/dL | ALPi (female, 100 mg/kg-day): 49.7±18.4 U/L | APTT (female, 100 mg/kg-day): 17.57 s | BUN (female, 100 mg/kg-day): 16.7 ± 2.6 mg/dL | CHOL (female, 100 mg/kg-day): 122.7 ± 15.6 mg/dL | GLOB (female, 100 mg/kg-day): 4.00 ± 0.27 g/dL | GLUC (female, 100 mg/kg-day): 153.8 ± 19.2 mg/dL | HCT (female, 100 mg/kg-day): 46.45±1.01% | HGB (female, 100 mg/kg-day): 14.77 ± 0.32 g/dL | Kidney Weight (female, 100 mg/kg-day): 1.84 g | Kidney/Body Weight (female, 100 mg/kg-day): 0.58% | Kidney/Brain Weight (female, 100 mg/kg-day): 89.7% | Liver Weight (female, 100 mg/kg-day): 9.17 g | Liver/Body Weight (female, 100 mg/kg-day): 2.85% | Liver/Brain Weight (female, 100 mg/kg-day): 447% | MPV (female, 100 mg/kg-day): 7.34 ± 0.51 fL | PT (female, 100 mg/kg-day): 13.79 s | Total BW change (female, 100 mg/kg-day): 129.49 g | Total Food Consumed (female, 100 mg/kg-day): 1671 g | % BW Gain (female, 200 mg/kg-day): 53.53% | % Diff, % BW Gain (female, 200 mg/kg-day): -11.58% | % Diff, Total BW change (female, 200 mg/kg-day): -11.94% | % Diff, Total Food Consumed (female, 200 mg/kg-day): 6.33% | A/G (female, 200 mg/kg-day): 1.15±0.03 ratio | ALB (female, 200 mg/kg-day): 4.69 ± 0.33 g/dL | ALPi (female, 200 mg/kg-day): 46.9±15.3 U/L | APTT (female, 200 mg/kg-day): 19.34 s | BUN (female, 200 mg/kg-day): 18.0 ± 3.3 mg/dL | CHOL (female, 200 mg/kg-day): 154.8 ± 35.9 mg/dL | GLOB (female, 200 mg/kg-day): 4.10 ± 0.33 g/dL | GLUC (female, 200 mg/kg-day): 155.2 ± 21.4 mg/dL | HGB (female, 200 mg/kg-day): 14.58 ± 0.80 g/dL | Kidney Weight (female, 200 mg/kg-day): 1.83 g | Kidney/Body Weight (female, 200 mg/kg-day): 0.61% | Kidney/Brain Weight (female, 200 mg/kg-day): 91.3% | Liver Weight (female, 200 mg/kg-day): 9.65 g | Liver/Body Weight (female, 200 mg/kg-day): 3.20%

Source: paper PMC12298827, “Subchronic Toxicities of Four Per- and Polyfluoroalkyl Substances (PFASs) by Oral Exposure in Sprague–Dawley Rats” (Toxics, 2025)
